Experimental data as given in US10537518B2, “Homogenization system of drugs into biodegradable polymer: smart polymer system” (Juvic Inc., priority 2015, dated 2020).

What was measured:
IL-1β = test: Serum IL-1β by ELISA in CIA mice; assay type: in vivo, DBA/1 mice; conditions: versus RA model
[1] = Colloid morphology and size by scanning electron microscope (SEM); assay type: physicochemical; conditions: colloids of HA and PVP 1:1 with drug
Protocol: (§1) The morphology of a colloidal structure of a polymer was analyzed using a scanning electron microscope (SEM; equipped with Type JEOL (JSM-7001F) energy-dispersive X-ray (EDX) Oxford ISIS 300 micro-analysis system). For this experiment, platinum coating was performed at 10 mA to protect colloids from high-energy beams. Also, a decrease in the size of the colloids was confirmed using a transmission electron microscope (TEM), and this confirmation was performed on a very thin sample formed on a copper grid as an upper cover provided in the grid. A TEM micrograph was obtained at 120 kV using a JEM 2010 (HC) (JEOL Ltd, USA) microscope. The amorphous form of the drug in the colloidal structure was confirmed using a random XRD analysis on the sample, and continuously scanned at intervals of 3-80° 2θ using an Ultima IV diffractometer (Rigaku Corporation, Japan) with Bragg-Brentano geometry (2θ/θ) having 40 kV/30 mA X-ray and K-beta filter radiations.

[2] = Colloid size by transmission electron microscope (TEM); assay type: physicochemical; conditions: colloids of HA and PVP 1:1 with drug
Protocol: as §1

[3] = In vitro drug release by Franz cell diffusion; assay type: in vitro ADME; conditions: pig skin; for release of drug from SPS microneedles: n=3; for time to diffusion after application: from SPS microneedles
Protocol: In vitro analysis was performed using Franz cell diffusion. Microneedles containing 0.1% NR and 0.75% CAP were applied onto the skin of a dead pig, and put on donor moieties of Franz cells. A receptor moiety was composed of PBS including 20% ethanol. A sample was analyzed at intervals of 0, 0.5, 1, 2, 3, 4, 5, 6, 12, and 24 hours. The quantification of NR and CAP was performed at 559 nm and 280 nm using UV-Vis spectroscopy (Jasco, V650) and Ultra Performance Liquid Chromatography (UPLC) (Acquity UPLC, Waters), respectively. The amounts of NR and CAP in a microneedle patch were determined by dissolving the patch in PBS including 10% ethyl acetate and 20% ethanol, respectively. Thereafter, solid-phase extraction was performed using ethyl acetate as an eluent. A microneedle patch having no drug was used as the control. 0.1% NR dissolved in 20% ethyl acetate and CAP dissolved in 40% ethanol were used in a topical formulation model. This model was most widely used for a formulation of a lipophilic compound in which an organic solvent was used to dissolve the lipophilic drug. 1 mL of such a topical formulation was dropped on the skin of a pig until the topical formulation was diffused to an area of approximately 2 cm^2.
Also, the size of CAP particles released during diffusion of the Franz cells in the skin of a dead pig (FIG. 4C) was measured. PBS solution samples were taken from the Franz cell receptor after 0, 6, 12, 24 hours of application of the CAP microneedles, and the particle sizes of the samples were measured through SEM image analysis.

[4] = Particle size analysis with particle size analyzer; assay type: physicochemical; conditions: for size of commercially available crystalline drug: crude powder, before homogenization
Protocol: Particle size analysis was performed using a particle size analyzer (Schimdzu, Japan). […] To uniformly mix drugs having a polymer combination and a colloid formulation, the drugs were homogenized at an optimum rotary speed of 21,000 rpm for 5 minutes using a rotor homogenizer (Homogenizer Power Gen 500, Fisher Scientific, USA). Ultrasonication was performed at […] using an ultrasonicator (Sonic vibra cell, USA). In the size analysis, distilled water was used as a solvent, and an average of values obtained reading each of samples three times was calculated. The particle size reading was performed at an interval of 30 minutes due to the tendency of the drug to be crystallized when the drug is exposed to distilled water for a long period of time.

[5] = cited from earlier work
[6] = homogenized with CMC (10% by weight), 0.1% NR, 0.75% CAP
[7] = homogenized with HA (10% by weight), 0.1% NR, 0.75% CAP
[8] = homogenized with PVA (10% by weight), 0.1% NR, 0.75% CAP
[9] = homogenized with PVP (10% by weight), 0.1% NR, 0.75% CAP
[10] = homogenized, polymer composition: None
[11] = in HA and PVP (1:1) smart polymer system

| SMILES | decrease of serum IL-1β level (IL-1β) | circular colloidal particle size (SEM) [1] | colloidal structure particle size (TEM) [2] | release of drug from SPS microneedles ([3]; 0.75% CAP microneedles, after 12 hours of application) | time to diffusion after application [3] | size of commercially available crystalline drug [4] | particle size [4, 6] | particle size [4, 7] | particle size [4, 8] | particle size [4, 9] | particle size [4, 10] | particle size [4, 11] | log P [5] | release of drug from SPS microneedles ([3]; 0.1% NR microneedles, after 8 hours of application) |
| --- | --- | --- | --- | --- | --- | --- | --- | --- | --- | --- | --- | --- | --- | --- |
| COc1cc(CNC(=O)CCCC/C=C/C(C)C)ccc1O [CAP, capsaicin] | approximately 50% | approximately 155±8 nm | 154±3 nm | 86% | within an hour | 4.845±3 μm | 43.856 ± 3 μm | 9.736 ± 2 μm | 2.676 ± 7 μm | 1.432 ± 3 μm | 0.986±6 μm | 167.4±4 nm | – | – |
| CCN(CC)c1ccc2nc3c4ccccc4c(=O)cc-3oc2c1 [NR, Nile Red] | – | approximately 168±12 nm | 161±32 nm | – | ≤ 30 min | 6.723±5 μm | 67.733 ± 8 μm | 11.083 ± 4 μm | 4.243 ± 8 μm | 1.564 ± 3 μm | 1.797±7 μm | 157.4±6 nm | 5 | 74% |
